In US5596002A, “Method of treating chloroquine-resistant malaria with aminoquinoline derivatives” (Hoffmann-La Roche Inc., priority 1993, dated 1997):
Values after ≈ are worked out from the molar mass of the structure shown. Where two headings read alike, the source gives them in different places.

What was measured:
[1] = system: Plasmodium falciparum, chloroquine-resistant strain Indo; experiment: activity against P. falciparum in vitro, strain Indo; type: cell-based; details: chloroquine-resistant strain Indo, 48 h-72 h, read-out: IC50 (50% growth inhibition)
Protocol: (§1) Test method for the determination of the activity against P. falciparum in vitro
(§2) The preparations of the present invention were tested on intraerythrocytary stages of P. falciparum from asynchronous cultures according to the method of Desjardin et al. (Desjardins, R. E. et al: Quantitative assessment of antimalarial activity in vitro by a semiautomated microdilution technique. Antimicrob. Agents Chemother. 16, 710-718, (1979)).
(§3) The culture medium consisted of RPMI 1640 with the addition of 25 mM HEPES, 25 mM NaHCO3, […] neomycin and 10% human serum (A^+). Human-A^+ erythrocytes were used as the P. falciparum host cells. The parasites were maintained at 37° C. in an atmosphere of 3% O2, 4% CO2, 93% N2 and at 95% relative humidity.
(§4) In order to determine the activity, the preparations were dissolved in DMSO, pre-diluted in the culture medium to a suitable starting concentration and subsequently titrated-out into microtitre plates in the 2nd stage over 6-7 steps. After the addition of the parasite culture (0.7% parasitemia in 2.5% erythrocyte suspension), the test plates were incubated under the conditions given above for 48 h-72 h. The parasite growth in the different preparation concentrations was determined using [G-^3 H]-hypoxanthin incorporation compared to untreated control cultures on the same test plates. The 50% growth inhibition (IC50) was calculated according to logit regression analysis from the resulting dosage-activity curve.
(§5) The preparations were tested on at least one chloroquine-resistant and one chloroquine-sensitive P. falciparum strain. Additional sensitive and resistant strains were also included for further characterization.
(§6) Table 1 below contains the IC50 values measured in vitro for the growth inhibition of chloroquine-sensitive and chloroquine-resistant strains of the human pathogenic Plasmodium falciparum.

[2] = system: Plasmodium falciparum, chloroquine-resistant strain ItG2 F6; experiment: activity against P. falciparum in vitro, strain ItG2 F6; type: cell-based; details: chloroquine-resistant strain ItG2 F6, 48 h-72 h, read-out: IC50 (50% growth inhibition)
Protocol: as §1, §2, §3, §4, §5, §6

[3] = system: Plasmodium falciparum, chloroquine-sensitive strain HB3; experiment: activity against P. falciparum in vitro, strain HB3; type: cell-based; details: chloroquine-sensitive strain HB3, 48 h-72 h, read-out: IC50 (50% growth inhibition)
Protocol: as §1, §2, §3, §4, §5, §6

[4] = system: Plasmodium falciparum, chloroquine-resistant strain W2; experiment: activity against P. falciparum in vitro, strain W2; type: cell-based; details: chloroquine-resistant strain W2, 48 h-72 h, read-out: IC50 (50% growth inhibition)
Protocol: as §1, §2, §3, §4, §5, §6

[5] = system: Plasmodium falciparum, chloroquine-sensitive strain Ro7 3; experiment: activity against P. falciparum in vitro, strain Ro7 3; type: cell-based; details: chloroquine-sensitive strain Ro7 3, 48 h-72 h, read-out: IC50 (50% growth inhibition)
Protocol: as §1, §2, §3, §4, §5, §6

[6] = system: Plasmodium falciparum, chloroquine-sensitive strain NF54; experiment: activity against P. falciparum in vitro, strain NF54; type: cell-based; details: Plasmodium falciparum; chloroquine-sensitive strain NF54; 48 h-72 h; read-out: IC50 (50% growth inhibition)
Protocol: as §1, §2, §3, §4, §5, §6

[7] = system: Plasmodium falciparum, chloroquine-resistant strain RFCR3; experiment: activity against P. falciparum in vitro, strain RFCR3; type: cell-based; details: chloroquine-resistant strain RFCR3, 48 h-72 h, read-out: IC50 (50% growth inhibition)
Protocol: as §1, §2, §3, §4, §5, §6

[8] = system: Plasmodium falciparum, chloroquine-resistant strain 7G8; experiment: activity against P. falciparum in vitro, strain 7G8; type: cell-based; details: chloroquine-resistant strain 7G8, 48 h-72 h, read-out: IC50 (50% growth inhibition)
Protocol: as §1, §2, §3, §4, §5, §6

[9] = system: Plasmodium falciparum, chloroquine-resistant strain W2 Mef; experiment: activity against P. falciparum in vitro, strain W2 Mef; type: cell-based; details: 48 h-72 h, read-out: IC50 (50% growth inhibition)
Protocol: as §1, §2, §3, §4, §5, §6

[10] = system: Plasmodium falciparum, chloroquine-sensitive strain RFMEF3; experiment: activity against P. falciparum in vitro, strain RFMEF3; type: cell-based; details: chloroquine-sensitive strain RFMEF3, 48 h-72 h, read-out: IC50 (50% growth inhibition)
Protocol: as §1, §2, §3, §4, §5, §6

[11] = system: Plasmodium falciparum, chloroquine-resistant strain K1; experiment: activity against P. falciparum in vitro, strain K1; type: cell-based; details: Plasmodium falciparum; chloroquine-resistant strain K1; 48 h-72 h; read-out: IC50 (50% growth inhibition)
Protocol: as §1, §2, §3, §4, §5, §6

[12] = system: Plasmodium falciparum, chloroquine-sensitive strain FCH5C2; experiment: activity against P. falciparum in vitro, strain FCH5C2; type: cell-based; details: chloroquine-sensitive strain FCH5C2, 48 h-72 h, read-out: IC50 (50% growth inhibition)
Protocol: as §1, §2, §3, §4, §5, §6

[13] = system: Plasmodium berghei (strain ANKA); experiment: activity against Plasmodium berghei in vivo (infected mice); details: mice; for ED50: single administration po, dose reducing average erythrocyte infection rate by 50%, read-out: ED50 (po); for inhibition in vivo at 10 mg/kg: 48 hours after treatment (D+3)
Protocol: Test method for the determination of the activity against Plasmodium berghei in vivo
The preparations according to the present invention were tested on mice infected with malaria pathogens (Plasmodium berghei). Male albino mice (IBM:MORO(SPF), FUELLINSDORF) weighing about 25 g were used as the test animals. They were kept in climatized rooms at 21°-22° C. in groups of 5 animals per cage. They received ad libitum a diet feed with a low PABA content ("NAFAG FUTTER" No. 9009 PAB-45, PABA content 45 mg/kg) and drinking water. On the first day of the test (D0) the test animals were infected with Plasmodium berghei (strain ANKA). For this there was used heparinized blood of a donor mouse with about 30% parasitemia, which was diluted with physiological saline such that it contains 10^8 parasitized erythrocytes per ml. 0.2 ml of this suspension was injected intravenously (i.v.) into the mice to be treated and into the control mice. In untreated control animals the parasitemia normally reaches 30-40% on the third day after the infection (D+3) and the test animals die between days +5 and +7.
The substances to be tested were dissolved or suspended in distilled water or in a mixture of 7% Tween 80, 3% alcohol (96%) and water. Usually, 0.25 ml of this solution or suspension was administered once subcutaneously and perorally to groups of 5 test animals. Treatment was effected 24 hours after the infection. 10 control animals were treated in the same manner with solvent or suspension medium per test.
All substances were tested in a first test in a single dosage of 10 mg/kg. Only those substances which in this test (10 mg/kg) had shown a parasitaemia reduction of 90% were used for the titration.
48 hours after the treatment (D+3), blood smears were prepared from all animals using blood from tail veins and were stained with Giemsa. The average erythrocyte infection rate (parasitemia in %) in the control groups as well as in the groups which had been treated with the test compounds was determined by counting under a microscope. The difference in the average values of the infection rates of control group (100%) and treated groups was calculated and expressed as a percentage reduction (GI %). The ED50 or ED90 was determined mathematically by means of the JMP programme (nonlinear fit). The ED50 (ED90) in mg/kg is that dose which after single administration reduces the average erythrocyte infection rate by 50% (90%) in comparison to the control group.
Table 2 below contains data with respect to the activity measured against Plasmodium berghei in mice: GI % is the percentage reduction in the parasitemia after a single dose of 10 mg/kg of the test substance administered perorally (po) or subcutaneously (sc); ED50 and ED90 are the effective doses of the test substance administered perorally or subcutaneously.

[14] = single dose 10 mg/kg po, read-out: GI % at 10 mg/kg (po): percentage reduction in the parasitemia
[15] = single dose 10 mg/kg sc, read-out: GI % at 10 mg/kg (sc): percentage reduction in the parasitemia

Row | Compound | IC50 [1] | IC50 [2] | IC50 [3] | IC50 [4] | IC50 [5] | IC50 [6] | IC50 [7] | IC50 [8] | IC50 [9] | IC50 [10] | IC50 [11] | IC50 [12] | ED50 [13] | inhibition in vivo at 10 mg/kg [13, 14] | inhibition in vivo at 10 mg/kg [13, 15]
1 | CC(CN(C)C)Nc1ccnc2cc(Cl)ccc12 (racemic) [Example 1, (RS)-N2-(7-Chloro-quinolin-4-yl)-N1,N1-dimethyl-propane-1,2-diamine] | 8 ng/mL (≈ 0.0303 µM) | 4 ng/mL (≈ 0.0152 µM) | 7 ng/mL (≈ 0.0265 µM) | 9 ng/mL (≈ 0.0341 µM) | 5 ng/mL (≈ 0.019 µM) | 4 ng/mL (≈ 0.0152 µM) | 15 ng/mL (≈ 0.0569 µM) | 9 ng/mL (≈ 0.0341 µM) | 7 ng/mL (≈ 0.0265 µM) | 7 ng/mL (≈ 0.0265 µM) | 9 ng/mL (≈ 0.0341 µM) | 8 ng/mL (≈ 0.0303 µM) | 2.3 mg/kg | 99.9% | 99.9%
2 | Clc1ccc2c(NC3CCN(Cc4ccccc4)CC3)ccnc2c1 [Example 19, (1-Benzyl-piperidin-4-yl)-(7-chloro-quinolin-4-yl)-amine] | 7 ng/mL (≈ 0.0199 µM) | 6 ng/mL (≈ 0.0171 µM) | 4 ng/mL (≈ 0.0114 µM) | 10 ng/mL (≈ 0.0284 µM) | 3 ng/mL (≈ 0.00853 µM) | 7 ng/mL (≈ 0.0199 µM) | 10 ng/mL (≈ 0.0284 µM) | 7 ng/mL (≈ 0.0199 µM) | 11 ng/mL (≈ 0.0313 µM) | 5 ng/mL (≈ 0.0142 µM) | 9 ng/mL (≈ 0.0256 µM) | 5 ng/mL (≈ 0.0142 µM) | 5.3 mg/kg | 99% | 99.6%
3 | Clc1ccc2c(NCCCN3CCCCC3)ccnc2c1 [Example 18, (7-Chloro-quinolin-4-yl)-(3-piperidin-1-yl-propyl)-amine] | 7 ng/mL (≈ 0.023 µM) | 7 ng/mL (≈ 0.023 µM) | 8 ng/mL (≈ 0.0263 µM) | 11 ng/mL (≈ 0.0362 µM) | 7 ng/mL (≈ 0.023 µM) | 4 ng/mL (≈ 0.0132 µM) | 8 ng/mL (≈ 0.0263 µM) | 12 ng/mL (≈ 0.0395 µM) | 12 ng/mL (≈ 0.0395 µM) | 8 ng/mL (≈ 0.0263 µM) | 14 ng/mL (≈ 0.0461 µM) | 4 ng/mL (≈ 0.0132 µM) | 6.9 mg/kg | 83% | 96%
4 | CCN1CCCC1CNc1ccnc2cc(Cl)ccc12 (stereo not drawn) [Example 12, (7-Chloro-quinolin-4-yl)-(1-ethyl-pyrrolidin-2-yl-methyl)-amine] | 12 ng/mL (≈ 0.0414 µM) | 8 ng/mL (≈ 0.0276 µM) | 7 ng/mL (≈ 0.0242 µM) | 15 ng/mL (≈ 0.0518 µM) | 7 ng/mL (≈ 0.0242 µM) | 6 ng/mL (≈ 0.0207 µM) | 15 ng/mL (≈ 0.0518 µM) | 15 ng/mL (≈ 0.0518 µM) | 9 ng/mL (≈ 0.0311 µM) | 8 ng/mL (≈ 0.0276 µM) | 10 ng/mL (≈ 0.0345 µM) | 9 ng/mL (≈ 0.0311 µM) |  |  | 
5 | Clc1ccc2c(NCCN3CCCCC3)ccnc2c1 [Example 8, (7-Chloro-quinolin-4-yl)-(2-piperidin-1-yl-ethyl)-amine] | 5 ng/mL (≈ 0.0173 µM) | 4 ng/mL (≈ 0.0138 µM) | 7 ng/mL (≈ 0.0242 µM) | 11 ng/mL (≈ 0.038 µM) | 4 ng/mL (≈ 0.0138 µM) | 5 ng/mL (≈ 0.0173 µM) | 10 ng/mL (≈ 0.0345 µM) | 7 ng/mL (≈ 0.0242 µM) | 9 ng/mL (≈ 0.0311 µM) | 9 ng/mL (≈ 0.0311 µM) | 11 ng/mL (≈ 0.038 µM) | 9 ng/mL (≈ 0.0311 µM) |  |  | 
